Each structure is given as a SMILES string. Values after ≈ are worked out from the molar mass of the structure shown.

The text below walks through data of ChEMBL document CHEMBL3259765, “ProTides of N-(3-(5-(2'-deoxyuridine))prop-2-ynyl)octanamide as potential anti-tubercular and anti-viral agents” (Bioorg Med Chem, 2014).

In the test the test system is Mycobacterium tuberculosis variant bovis BCG. Description: Antibacterial activity against Mycobacterium bovis BCG ATCC 35734 up to 2 weeks by HT-SPOTi assay. In kind it is functional. As to conditions: ATCC 35734, 336 h.
What is called MIC is the lowest concentration found to suppress growth. Low values mean a more susceptible organism, high ones a less susceptible organism. `CCCCCCCC(=O)NCC#Cc1cn([C@H]2C[C@H](O)[C@@H](CO)O2)c(=O)[nH]c1=O`: the MIC is over 250 µg/mL.

Turning to `CCCCCCCC(=O)NCC#Cc1cn([C@H]2C[C@H](O)[C@@H](COP(=O)(N[C@@H](C)C(=O)OC)Oc3cccc4ccccc34)O2)c(=O)[nH]c1=O` (stereo partly drawn), the MIC stood at 62.5 µg/mL (≈ 89.5 µM).

`CCCCCCCC(=O)NCC#Cc1cn([C@H]2C[C@H](O)[C@@H](COP(=O)(N[C@@H](C)C(=O)OCC)Oc3cccc4ccccc34)O2)c(=O)[nH]c1=O` (stereo partly drawn): the MIC came to 125 µg/mL (≈ 175 µM).

For `CCCCCCCC(=O)NCC#Cc1cn([C@H]2C[C@H](O)[C@@H](COP(=O)(N[C@@H](C)C(=O)OCC(C)C)Oc3cccc4ccccc34)O2)c(=O)[nH]c1=O` (stereo partly drawn), the MIC was found to be 125 µg/mL (≈ 169 µM).

Compound `CCCCCCCC(=O)NCC#Cc1cn([C@H]2C[C@H](O)[C@@H](COP(=O)(N[C@@H](C)C(=O)OCc3ccccc3)Oc3cccc4ccccc34)O2)c(=O)[nH]c1=O` (stereo partly drawn) yielded an MIC of 250 µg/mL (≈ 323 µM).

Compound `CCCCCCCC(=O)NCC#Cc1cn([C@H]2C[C@H](O)[C@@H](COP(=O)(N[C@@H](C)C(=O)OC)Oc3ccccc3)O2)c(=O)[nH]c1=O` (stereo partly drawn) yielded an MIC of over 250 µg/mL.

On to `CCCCCCCC(=O)NCC#Cc1cn([C@H]2C[C@H](O)[C@@H](COP(=O)(N[C@@H](C)C(=O)OCC)Oc3ccccc3)O2)c(=O)[nH]c1=O` (stereo partly drawn), for which the MIC was 250 µg/mL (≈ 377 µM).

The compound `CCCCCCCC(=O)NCC#Cc1cn([C@H]2C[C@H](O)[C@@H](COP(=O)(N[C@@H](C)C(=O)OCCC)Oc3ccccc3)O2)c(=O)[nH]c1=O` (stereo partly drawn) returned an MIC of 125 µg/mL (≈ 185 µM).

`CCCCCCCC(=O)NCC#Cc1cn([C@H]2C[C@H](O)[C@@H](COP(=O)(N[C@@H](C)C(=O)OCc3ccccc3)Oc3ccccc3)O2)c(=O)[nH]c1=O` (stereo partly drawn) returned an MIC of 125 µg/mL (≈ 172 µM).

With `CCCCCCCC(=O)NCC#Cc1cn([C@H]2C[C@H](O)[C@@H](COP(=O)(N[C@H](C)C(=O)OCc3ccccc3)Oc3ccccc3)O2)c(=O)[nH]c1=O` (stereo partly drawn), it took 62.5 µg/mL (≈ 86.2 µM) to inhibit growth (MIC).

Compound `CCCCCCCC(=O)NCC#Cc1cn([C@H]2C[C@H](O)[C@@H](COP(=O)(NCC(=O)OCc3ccccc3)Oc3ccccc3)O2)c(=O)[nH]c1=O` (stereo partly drawn) displayed an MIC of over 250 µg/mL.

On to `CCCCCCCC(=O)NCC#Cc1cn([C@H]2C[C@H](O)[C@@H](COP(=O)(NC(C)(C)C(=O)OCc3ccccc3)Oc3ccccc3)O2)c(=O)[nH]c1=O` (stereo partly drawn), for which it took 125 µg/mL (≈ 169 µM) to inhibit growth (MIC).

For the compound `CCCCCCCC(=O)NCC#Cc1cn([C@H]2C[C@H](O)[C@@H](COP(=O)(N[C@H](C(=O)OCc3ccccc3)C(C)C)Oc3ccccc3)O2)c(=O)[nH]c1=O` (stereo partly drawn), the lowest concentration to inhibit growth (MIC) was 125 µg/mL (≈ 166 µM).
